Assay results: patent US20070027080A1, “Method for treatment of vitiligo” (priority 2005, published 2007)

Key:
fast spreading vitiligo = assay: Clinical trial: disease activity (arrest of spread) of fast spreading vitiligo, OMP of beta methasone with or without the peptide; format: in vivo, human
Description: (§1) That this happens was shown in a clinical trial on human volunteers. The above twin objectives were accomplished. FIG. 2a describes two vitiligo patches at the start of treatment of oral steroids, while 2b describes the same patches at the end of 3 months of treatment with oral steroids while at the same time bFGF peptide(s) lotion was applied locally once a day on the lower vitiligo patch for the duration of intake of oral steroids. […] The arrest of the fast spread of the disease was accomplished to the same extent of 88% at the end of 6 months of treatment with oral steroids and the result was not altered by the local application of bFGF peptide(s) lotion (See table 3 for more details)

[1] = system: vitiligo patches of volunteers; assay: Clinical trial: repigmentation of vitiligo patches, OMP of beta methasone with or without local application of the peptide; format: in vivo, human
Description: as §1
At the end of 3 months of combinatorial treatment with steroids and local application of bFGF peptide(s) lotion more than 3 fold more patients got pigmented to a marked extent than with steroid alone (See Table 4 for more details). The percentage of volunteers who had moderate and marked rate of repigmentation with combinatorial therapy at the end of three months of treatment is twice than with the steroid therapy alone.

Compound: C[C@H]1C[C@H]2[C@@H]3CCC4=CC(=O)C=C[C@]4(C)[C@@]3(F)[C@@H](O)C[C@]2(C)[C@@]1(O)C(=O)CO [OMP Alone, beta methasone]
- No. of patients where the disease was arrested with time (fast spreading vitiligo; At 3 months): 12
- Percentage of patients where the disease was arrested (fast spreading vitiligo; At 3 months): 75%
- No. of patients where the disease was arrested with time (fast spreading vitiligo; At 6 months): 14
- Percentage of patients where the disease was arrested (fast spreading vitiligo; At 6 months): 87.50%
- Percentage of patients where the disease was arrested (fast spreading vitiligo; At 6 months, listed as oral steroids): 88%
- Marked repigmentation, % of volunteers ([1]; At 3 months): 12.5%
- Marked repigmentation, number of volunteers ([1]; At 3 months): 2
- Minimal repigmentation, % of volunteers ([1]; At 3 months): 68.75%
- Minimal repigmentation, number of volunteers ([1]; At 3 months): 11
- Moderate repigmentation, % of volunteers ([1]; At 3 months): 18.75%
- Moderate repigmentation, number of volunteers ([1]; At 3 months): 3
- Marked repigmentation, % of volunteers ([1]; At 6 months): 25%
- Marked repigmentation, number of volunteers ([1]; At 6 months): 4
- Minimal repigmentation, % of volunteers ([1]; At 6 months): 50%
- Minimal repigmentation, number of volunteers ([1]; At 6 months): 8
- Moderate repigmentation, % of volunteers ([1]; At 6 months): 25%
- Moderate repigmentation, number of volunteers ([1]; At 6 months): 4
